The record followed here is patent US8853230B2, “Inhibitors of JAK” (Portola Pharmaceuticals, Inc., priority 2009, dated 2014).

One test has as its target T1, JAK1 (Homo sapiens, UniProt P23458).
T1 construct: 5 μl of catalytic domain recombinant Kinase enzyme+Tyr peptide substrate (Invitrogen, Calif.); purchased Invitrogen
Description: Z'-LYTE kinase assay, JAK1 tyrosine phosphorylation activity. The class given is biochemical. To be noted: read-out: JAK 1 IC50. In a few lines: (§1)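 FRET read-out (ex 400 nm, em 445 and 520 nm) after protease cleavage of non-phosphorylated Tyr6 peptide. Kinase step: catalytic-domain enzyme, peptide, ATP and compound, 1 h at RT, 1% DMSO. IC50 from a 4-parameter logistic fit of percent phosphorylation versus uninhibited control.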

The next test deals with T2, JAK2 (Homo sapiens, UniProt O60674).
T2 construct: 5 μl of catalytic domain recombinant Kinase enzyme+Tyr peptide substrate (Invitrogen, Calif.); purchased Invitrogen
T2 sequence (O60674 849-1124 limits assumed): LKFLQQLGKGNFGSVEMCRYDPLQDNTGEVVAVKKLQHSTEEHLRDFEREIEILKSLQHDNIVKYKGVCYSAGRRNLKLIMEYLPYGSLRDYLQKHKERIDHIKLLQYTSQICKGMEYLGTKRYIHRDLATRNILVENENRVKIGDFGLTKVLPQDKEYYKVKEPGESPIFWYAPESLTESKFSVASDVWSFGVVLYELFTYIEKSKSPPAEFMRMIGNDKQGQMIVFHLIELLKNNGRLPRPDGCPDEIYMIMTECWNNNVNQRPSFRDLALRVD
Briefly: Z'-LYTE kinase assay, JAK2 tyrosine phosphorylation activity. In kind it is biochemical. The method, boiled down:
as §1

A further test concerns the target T3, JAK3 (Homo sapiens, UniProt P52333).
T3 construct: 5 μl of catalytic domain recombinant Kinase enzyme+Tyr peptide substrate (Invitrogen, Calif.); purchased Invitrogen
Description: Z'-LYTE kinase assay, JAK3 tyrosine phosphorylation activity. In kind it is biochemical. The method, boiled down:
as §1

Another test concerns the target T4, TYK2 (Homo sapiens, UniProt P29597).
T4 construct: 5 μl of catalytic domain recombinant Kinase enzyme+Tyr peptide substrate (Invitrogen, Calif.); purchased Invitrogen
T4 sequence (P29597 897-1176 limits assumed): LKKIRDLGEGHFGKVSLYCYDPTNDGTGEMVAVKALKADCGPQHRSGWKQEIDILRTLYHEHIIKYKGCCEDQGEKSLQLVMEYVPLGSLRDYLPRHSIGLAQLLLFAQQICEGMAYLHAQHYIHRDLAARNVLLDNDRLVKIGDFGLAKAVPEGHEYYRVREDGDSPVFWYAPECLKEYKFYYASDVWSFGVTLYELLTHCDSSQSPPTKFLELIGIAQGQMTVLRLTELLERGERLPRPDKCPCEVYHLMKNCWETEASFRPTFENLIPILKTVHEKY
Description: Z'-LYTE kinase assay, TYK2 tyrosine phosphorylation activity. In kind it is biochemical. The method, boiled down:
as §1

For test [1], the system named is IL4-induced phospho STAT6 formation in Ramos B lymphocytes. Briefly: Inhibition of IL4-induced phospho STAT6 formation in Ramos B lymphocytes (flow cytometry). In kind it is cell-based, human. To be noted: Homo sapiens; for inhibition at 0.2 µM: 200 nM compound, read-out: % Inhibition of IL-4 Induced STAT6 Phosphorylation 200 nM; for inhibition at 1 µM: 1 μM compound, read-out: % Inhibition of IL-4 Induced STAT6 Phosphorylation 1 μM. The text has this: Similar types of assays can be used to assess JAK inhibitory activity and to determine the degree of selectivity of the particular compound as compared to syk. One means of assaying for such inhibition is detection of the effect of the compounds of the present invention on the upregulation of downstream gene products. In the Ramos/IL4 assay, B-cells are stimulated with the cytokine Interleukin-4 (IL-4) leading to the activation of the JAK/Stat pathway through phosphorylation of the JAK family kinases, JAK1 and JAK3, which in turn phosphorylate and activate the transcription factor Stat-6. […] To study the effect of inhibitors (e.g., the 2,4-substituted pyrimindinediamine compounds described herein) on the JAK1 and JAK3, human Ramos B-cells are stimulated with human IL-4. 10′ post-stimulation, cells are subjected to intracellular flow cytometry to measure the extent of STAT-6 phosphorylation. 20 to 24 hours post-stimulation, cells are stained for upregulation of CD23 and analyzed using flow cytometry.
Inhibition of IL4-induced phospho STAT6 formation was measured by pre-incubating 0.5 million Ramos B lymphocytes (ATCC) with 5 μl compound or DMSO vehicle for 1 hour at 37° C./5% CO2. Cells were activated by addition of 1 ng/ml [f]IL4 (R & D Research Systems) for 10 min at 37° C./5% CO2 and then fixed by addition of 1.6% [f]PFA (Electron Microscopy Services). Following a PBS wash step and permaeabilization with 100% methanol, cells were incubated with ALEXA-conjugated anti-phosphoSTAT6 (Y641) antibody (BD 612600). The extent of cell associated-fluorescence was determined by flow cytomentry and data expressed as mean fluorescent intensity. The extent of inhibition of the IL4-induced signal was then calculated.

T3 sequence (P52333 822-1111 limits assumed): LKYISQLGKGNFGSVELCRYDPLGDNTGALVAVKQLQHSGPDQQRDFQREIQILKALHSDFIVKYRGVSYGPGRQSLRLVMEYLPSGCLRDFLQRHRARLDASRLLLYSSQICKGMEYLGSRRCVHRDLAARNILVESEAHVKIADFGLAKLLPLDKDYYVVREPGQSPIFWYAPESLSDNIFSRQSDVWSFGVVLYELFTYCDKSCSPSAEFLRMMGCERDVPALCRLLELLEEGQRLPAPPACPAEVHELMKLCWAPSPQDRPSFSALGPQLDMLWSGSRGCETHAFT
T1 sequence (P23458 875-1153 limits assumed): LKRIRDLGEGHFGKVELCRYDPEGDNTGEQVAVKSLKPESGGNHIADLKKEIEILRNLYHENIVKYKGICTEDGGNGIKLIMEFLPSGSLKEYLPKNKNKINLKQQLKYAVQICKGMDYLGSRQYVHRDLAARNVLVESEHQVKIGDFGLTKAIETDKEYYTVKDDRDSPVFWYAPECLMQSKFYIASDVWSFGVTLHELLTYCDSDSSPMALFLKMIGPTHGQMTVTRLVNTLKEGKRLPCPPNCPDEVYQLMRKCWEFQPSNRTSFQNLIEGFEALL

With `C[C@@H]1CCCN1C(=O)Nc1cccc(Nc2ncc(C(N)=O)c(NCc3ccccc3)n2)c1` [Example 146, (R)-4-(benzylamino)-2-(3-(2-methylpyrrolidine-1-carboxamido)phenylamino)pyrimidine-5-carboxamide], the IC50 (usually the point on the concentration scale where inhibition reaches its midpoint) fell in the range of 10 to 100 nM on JAK1, 10 to 100 nM on JAK2, 1 to 10 nM at JAK3 and 1 to 10 nM at TYK2. In addition, in test [1], the inhibition (usually how much of the control response was suppressed) at 0.2 µM is 40.7%. For the same molecule, the inhibition at 1 µM in test [1] is 82%.
In the case of `CC(=O)Nc1cc(Nc2ncc(C(N)=O)c(NCc3ccccc3)n2)ccc1OCCN1CCCC1` [Example 244, 2-(3-acetamido-4-(2-(pyrrolidin-1-yl)ethoxy)phenylamino)-4-(benzylamino)pyrimidine-5-carboxamide], the IC50 at JAK1 is 10 to 100 nM; on JAK2, 10 to 100 nM; against JAK3, less than 1 nM; at TYK2 it was 1 to 10 nM. In addition, the inhibition at 0.2 µM in test [1] came to 51.3%. Moreover, the inhibition at 1 µM in test [1] was determined as 94.7%.
In the case of `CC(=O)Nc1ccc(F)c(Nc2ncc(C(N)=O)c(NCc3ccccc3)n2)c1` [Example 171, 2-(5-acetamido-2-fluorophenylamino)-4-(benzylamino)pyrimidine-5-carboxamide], the IC50 at JAK1 lay in the range of 100 to 1000 nM; against JAK2 it was 100 to 1000 nM; on JAK3, 10 to 100 nM; against TYK2 it was 100 to 1000 nM. Besides, the inhibition at 0.2 µM in test [1] worked out at 7.3%. Moreover, in test [1], the inhibition at 1 µM is 15.3%.
In the case of `NC(=O)c1cnc(Nc2ccc(Cl)c(NC(=O)N3CCC3)c2)nc1NCc1ccccc1` [Example 233, 2-(3-(azetidine-1-carboxamido)-4-chlorophenylamino)-4-(benzylamino)pyrimidine-5-carboxamide], the IC50 on JAK1 lay in the range of 100 to 1000 nM; at JAK2 it was 100 to 1000 nM; at JAK3, 1 to 10 nM; against TYK2 it was 10 to 100 nM. The inhibition at 0.2 µM in test [1] was 7%. Besides, the inhibition at 1 µM in test [1] turned out to be 37.7%.
Take `NC(=O)c1cnc(Nc2cccc(NC(=O)N3CC=CC3)c2)nc1NCc1ccccc1` [Example 142, 4-(benzylamino)-2-(3-(2,5-dihydro-1H-pyrrole-1-carboxamido)phenylamino)pyrimidine-5-carboxamide]: the concentration for half-maximal inhibition (IC50) was in the range of 10 to 100 nM at JAK1, 10 to 100 nM against JAK2, 1 to 10 nM on JAK3 and 1 to 10 nM at TYK2. Besides, the inhibition at 0.2 µM in test [1] was found to be 41.3%. Besides, the inhibition at 1 µM in test [1] stood at 79.3%.
As for `NC(=O)c1cnc(Nc2cccc(NC(=O)N3CCOCC3)c2)nc1NCc1ccccc1` [Example 217, N-(3-(4-(benzylamino)-5-carbamoylpyrimidin-2-ylamino)phenyl)morpholine-4-carboxamide], the IC50 fell in the range of 10 to 100 nM at JAK1, 10 to 100 nM against JAK2, 1 to 10 nM on JAK3 and 1 to 10 nM against TYK2. The inhibition at 0.2 µM in test [1] was 61.3%. For the same molecule, the inhibition at 1 µM in test [1] was found to be 92%.
In the case of `CNC(=O)Nc1cc(Nc2ncc(C(N)=O)c(N[C@H](C)c3ccccc3)n2)ccc1Cl` [Example 132, (R)-2-(4-chloro-3-(3-methylureido)phenylamino)-4-(1-phenylethylamino)pyrimidine-5-carboxamide], the IC50 lay in the range of 100 to 1000 nM on JAK1, 100 to 1000 nM at JAK2, 10 to 100 nM on JAK3 and 100 to 1000 nM at TYK2. The inhibition at 0.2 µM in test [1] was 7.5%. Besides, the inhibition at 1 µM in test [1] turned out to be 53.7%.
As to `NC(=O)c1cnc(Nc2ccc(Cl)c(NC(=O)N3CCCC3)c2)nc1NCc1cccc(F)c1` [Example 177, 2-(4-chloro-3-(pyrrolidine-1-carboxamido)phenylamino)-4-(3-fluorobenzylamino)pyrimidine-5-carboxamide], the concentration for half-maximal inhibition (IC50) is more than 1000 nM on JAK1, 100 to 1000 nM against JAK2, 1 to 10 nM against JAK3 and 100 to 1000 nM against TYK2. Moreover, in test [1], the inhibition at 0.2 µM was 2.3%. The inhibition at 1 µM in test [1] amounted to 7.3%.
For `COCC(=O)Nc1cc(Nc2ncc(C(N)=O)c(NCc3ccccc3)n2)ccc1Cl` [Example 106, 4-(benzylamino)-2-(4-chloro-3-(2-methoxyacetamido)phenylamino)pyrimidine-5-carboxamide], the IC50 on JAK1 was in the range of 100 to 1000 nM; against JAK2, 100 to 1000 nM; at JAK3, 10 to 100 nM; against TYK2, 10 to 100 nM. Also, the inhibition at 0.2 µM in test [1] amounted to 16.8%. In addition, the inhibition at 1 µM in test [1] turned out to be 27.8%.
Take `NC(=O)c1cnc(Nc2cccc(NC(=O)N3CCCC3)c2)nc1NCc1cccc(F)c1` [Example 179, 4-(3-fluorobenzylamino)-2-(3-(pyrrolidine-1-carboxamido)phenylamino)pyrimidine-5-carboxamide]: the IC50 at JAK1 fell in the range of 10 to 100 nM; at JAK2 it was 10 to 100 nM; against JAK3, 1 to 10 nM; at TYK2, 10 to 100 nM. The inhibition at 0.2 µM in test [1] stood at 11.3%. For the same molecule, in test [1], the inhibition at 1 µM was determined as 10.7%.
Turning to `CNC(=O)Nc1cc(Nc2ncc(C(N)=O)c(NCc3ccccc3)n2)ccc1OC` [Example 164, 4-(benzylamino)-2-(4-methoxy-3-(3-methylureido)phenylamino)pyrimidine-5-carboxamide], the IC50 fell in the range of 10 to 100 nM on JAK1, 10 to 100 nM against JAK2, 1 to 10 nM against JAK3 and 1 to 10 nM on TYK2. Moreover, the inhibition at 0.2 µM in test [1] turned out to be 34.7%. In test [1], the inhibition at 1 µM is 68.7%.
Regarding `NC(=O)c1cnc(Nc2cccc(NC(=O)[C@H]3CCCO3)c2)nc1NCc1ccccc1` [Example 202, (R)-4-(benzylamino)-2-(3-(tetrahydrofuran-2-carboxamido)phenylamino)pyrimidine-5-carboxamide], the IC50 on JAK1 is 10 to 100 nM; against JAK2 it was 10 to 100 nM; on JAK3, 1 to 10 nM; on TYK2, 1 to 10 nM. In addition, in test [1], the inhibition at 0.2 µM stood at 23.5%. Moreover, the inhibition at 1 µM in test [1] was 48.5%.
In the case of `C[C@@H](Nc1nc(Nc2ccc(Cl)c(NC(N)=O)c2)ncc1C(N)=O)c1ccccc1` [Example 193, (R)-2-(4-chloro-3-ureidophenylamino)-4-(1-phenylethylamino)pyrimidine-5-carboxamide], the IC50 lay in the range of 100 to 1000 nM on JAK1, 100 to 1000 nM against JAK2, 1 to 10 nM against JAK3 and 100 to 1000 nM on TYK2. Besides, the inhibition at 0.2 µM in test [1] is 13.7%. Also, in test [1], the inhibition at 1 µM was found to be 51.3%.
In the case of `CC(=O)Nc1cc(Nc2ncc(C(N)=O)c(N[C@H](C)c3ccccc3)n2)ccc1Cl` [Example 108, (R)-2-(3-acetamido-4-chlorophenylamino)-4-(1-phenylethylamino)pyrimidine-5-carboxamide], the IC50 lay in the range of 100 to 1000 nM on JAK1, 10 to 100 nM against JAK2, 1 to 10 nM at JAK3 and 10 to 100 nM at TYK2. Further, the inhibition at 0.2 µM in test [1] stood at 21.3%. For the same molecule, the inhibition at 1 µM in test [1] was 70%.
For `COCC(=O)Nc1ccc(F)c(Nc2ncc(C(N)=O)c(NCc3ccccc3)n2)c1` [Example 172, 4-(benzylamino)-2-(2-fluoro-5-(2-methoxyacetamido)phenylamino)pyrimidine-5-carboxamide], the concentration for half-maximal inhibition (IC50) on JAK1 fell in the range of 100 to 1000 nM; at JAK2, 100 to 1000 nM; at JAK3 it was 10 to 100 nM; on TYK2, 100 to 1000 nM. Moreover, the inhibition at 0.2 µM in test [1] stood at 11.3%. Also, the inhibition at 1 µM in test [1] amounted to 33%.
In the case of `NC(=O)c1cnc(Nc2ccc(Cl)c(NC(=O)N3CCCCC3)c2)nc1NCc1ccccc1` [Example 209, 4-(benzylamino)-2-(4-chloro-3-(piperidine-1-carboxamido)phenylamino)pyrimidine-5-carboxamide], the IC50 is more than 1000 nM at JAK1, more than 1000 nM on JAK2, 1 to 10 nM at JAK3 and 100 to 1000 nM against TYK2. Moreover, the inhibition at 0.2 µM in test [1] is 0.3%. The inhibition at 1 µM in test [1] is 1%.
